The source of these data is patent US20040197268A1, “Method of imaging amyloid deposits using substituted rhodanine derivatives” (priority 1999, published 2004).

Structures are written as SMILES. Values joined by “and” are separate entries in the source; they are usually repeats but may differ in a detail not shown here. Equal entries are not always repeated.

Data set [1] addresses T1, beta amyloid peptide Aβ(1-40) (Homo sapiens, UniProt P05067).
T1 construct: 0.5 mg/mL AP (140) peptide in 20% HFIP+0.1 μL/assay radioiodinated ^125I Aβ(1-40)
Briefly: BAPA (Beta-Amyloid Peptide Aggregation), pH 6.0. As to conditions: Aβ(1-40) 33 μM, pH 6.0, 2 to 4 hours at room temperature, filtration. Format: biochemical. As for the experimental part:
BAPA (Beta-Amyloid Peptide Aggregation)
This assay is used to provide a measure of inhibition by a compound against the aggregation behavior of the beta amyloid peptide.
The purpose of this assay is to provide a higher volume method of assaying the amount of beta amyloid aggregation using an endpoint assay based on filtration. In this assay, hexafluoroisopropanol (HFIP) is used to break down the initial amyloid peptide to a monomer state and use a concentration of 33 μM which is high enough so that aggregation will occur at pH 6.0 in several hours.
β-Amyloid Peptide Aggregation, pH 6.0 (BAPA)
In a 96-well plate (Costar 3794), we add […] 50 mM Phosphate Buffer, pH 6.0, 10 μL 0.5 mg/mL AP (140) peptide in 20% HFIP+0.1 μL/assay radioiodinated ^125I Aβ(1-40) [^125I Aβ(1-40)], and 1 μL of the compound to be tested starting at 50 mM with a concentration of DMSO <1%. Then, we incubate for 2 to 4 hours at room temperature. We stop the reaction with […] of 50 mM phosphate buffer, pH 6.0, and filter it through a 0.2 μm 96-well filter plate (Millipore MAGU N22). We wash the filter plate with 100 μL of the same phosphate buffer. Aggregation was detected on a Microbeta counter after impregnating the filters with Meltilex (1450-441) and is corrected for background.

The target in data set [2] is T2, Aβ(1-40) (Homo sapiens, UniProt P05067).
T2 construct: Soluble Aβ(1-40) peptide (Bachem, Torrance, Calif.); purchased Bachem, Torrance, Calif
T2 sequence (P05067 672-711 limits assumed): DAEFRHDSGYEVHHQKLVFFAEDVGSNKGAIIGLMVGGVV
Put plainly: BASSR (Beta-Amyloid Self-Seeding Radioassay), inhibitors of self-seeded amyloid fibril growth. Format: biochemical. The conditions noted are these: 30 μM soluble Aβ(1-40) + 125I-labeled Aβ(1-40), pH 7.5, 37° C., 3 to 5 hours, filtration. The procedure:
BASSR (Beta-Amyloid Self-Seeding Radioassay)
(§1) An assay for inhibitors of self-seeded amyloid fibril growth
Assay Buffer—50 mM sodium phosphate, pH 7.5, 100 mM NaCl, 0.02% NaN3, 1 M urea (filter and store at 4° C.)
Soluble Aβ(1-40) peptide (Bachem, Torrance, Calif.)—2.2 mg/mL in deionized H2O (stored in aliquots at −20° C., keep on ice when thawed) will self-seed after 1 week storage. Typically, the solution should be stored until no lag phase is seen in the assay.
^125I-labeled Aβ(1-40)—150K-350K cpm/μL in 100% acetonitrile—0.1% trifluoroacetic acid (TFA)—1% β-mercaptoethanol (aliquots stored at −20° C.). ^125I-labeled Aβ(1-40) can be made in accordance with the procedure set forth by H. Levine, III in Neurobiol. Aging, 16:755 (1995), which is hereby incorporated by reference, or this reagent may be purchased from Amersham, Arlington Heights, Ill.
Final assay conditions: 30 μM soluble Aβ(1-40) in deionized water in assay buffer+20-50K cpm ^125I-labeled Aβ(1-40) per assay. Compound to be tested is dissolved in dimethylsulfoxide (DMSO), typically 5-50 mM stock, such that the final concentration of DMSO is <1% v/v in the assay.
Assay: Reaction mixture for 50 assays (on ice) is comprised of 0.1-0.2 μL of […] ^125I-labeled Aβ(1-40)+1 μL of soluble Aβ(1-40)+13.5 μL assay buffer per assay. The following are the amounts of the components of the reaction mixture sufficient for 50 assay wells.
1) Prepare reaction mixture above by mixing components and storing on ice.
2) Pipet 14.5 μL of reaction mixture into each of 50 wells on a polypropylene U-bottom 96-well microtiter plate on ice (Costar 3794).
3) Add 1.7 μL of diluted compound to be tested to each well in a column of eight, including solvent control. Serial 3-fold dilutions from 1 mM (100 μM final) in assay buffer−urea=7 dilutions+zero. Each 96-well plate can therefore accommodate 11 samples+1 Congo Red control (0.039-5 μM final in 2-fold steps).
4) Seal the plate with aluminum film (Beckman 538619) and incubate for 10 minutes on ice.
5) Raise the temperature to 37° C. and incubate for 3 to 5 hours (depending on the lot of the peptide).
6) Remove the aluminum film and add 200 μL/well of ice cold assay buffer with urea, collecting the radiolabeled fibrils by vacuum filtration through 0.2 μm pore size GVWP filters in 96-well plates (Millipore MAGV N22, Bedford, Mass.). Determine the radioactivity of the filters using standard methods well-known to those skilled in the art.

For a further data set, the target named is T3, Aβ(1-42) (Homo sapiens, UniProt P05067).
T3 construct: Required Aβ(1-42)(California Peptide) was dried from its hexafluoroisopropanol (HFIP) stock solution; purchased California Peptide
T3 sequence (P05067 672-713 limits assumed): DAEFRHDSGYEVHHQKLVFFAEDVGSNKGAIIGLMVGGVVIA
Put plainly: BATYM Assay (Aβ(1-42) aggregation, Thioflavin T fluorescence). Format: biochemical. As to conditions: Aβ 1-42 final concentration 100 μM, PBS pH 7.4, 37° C., 1 day, ThT fluorescence. The procedure:
Required Aβ(1-42)(California Peptide) was dried from its hexafluoroisopropanol (HFIP) stock solution. The Aβ(1-42) was dissolved in dimethylsulfoxide (DMSO) and then mixed with phosphate buffered saline, (PBS) (pH 7.4). The mixed Aβ(1-42) solution was filtered with a 0.2 μm Omnipore membrane syringe filter (Millipore, Bedford, Mass.). The compound to be tested in DMSO (50 times concentrate) was put into each well (0.5 μL/well) of a 96-well plate. The Aβ(1-42) solution was added into each well (24.5 μL/well). The plate was centrifuged at 1,000 g for 5 minutes and incubated at 37° C. for 1 day (Aβ 1-42; final concentration 100 μM).
After incubation Thioflavin T (ThT) (30 μM) solution in glycine-NaOH buffer (pH 8.5, 50 mM) was added into each well (250 μL/well), fluorescence was measured (ex. 440/20 nm; em 485/20 nm) using a fluorescence plate reader. The inhibitory activity was calculated as the reduction of fluorescence with the following formula:
inhibition (%)={(F(Aβ)−F(Aβ+compound)}/{F(Aβ)−F(solvent+compound)}×100
The IC50s were calculated by a curve fitting program using the following equation. The data were obtained from two different experiments in triplicate.
x=concentration of tested compound (M),

The target of data set [3] is T2, Aβ(1-40). Put plainly: BASST (Beta-Amyloid Self-Seeding, ThioflavinT), inhibitors of self-seeded amyloid fibril growth. It counts as biochemical. As to conditions: 30 μM soluble Aβ(1-40), pH 7.5, 37° C., 3 to 5 hours, thioflavin T fluorescence. The procedure: BASST (Beta-Amyloid Self-Seeding, ThioflavinT)
as §1
Assay Buffer—50 mM sodium phosphate, pH 7.5, 100 mM NaCl, 0.02% NaN3, 1 M urea (filter and store at 4° C.).
Soluble Aβ(1-40)—2.2 mg/mL in deionized H2O (store in aliquots at −20° C., keep on ice when thawed) will self-seed after 1 week storage. Typically, the solution should be stored until no lag phase is seen in the assay.
Final assay conditions: 30 μM soluble Aβ(1-40) in deionized water in assay buffer. Compound to be tested is dissolved in DMSO, typically 5-50 mM stock, such that the final concentration of DMSO is <1% v/v in the assay.
Assay: Reaction mixture for 50 assays (on ice) comprised of 1 μL of soluble Aβ(1-40)+13.5 μL assay buffer per assay. The following are the amounts of the components of the reaction mixture that result in each of the 50 assay wells.
1) Prepare the reaction mix above by mixing the components and storing on ice.
2) Pipet […] of reaction mixture into each of 50 wells of a polystyrene U-bottom 96-well microtiter plate (Corning 25881-96) on ice.
3) Add […] of diluted compound to be tested to each well in a column of eight, including solvent control. Serial 3-fold dilutions from 1 mM (100 μM final) in assay buffer−urea=7 dilutions+zero. Each 96-well plate can therefore accommodate 11 samples+1 Congo Red control (0.039-5 μM final in 2-fold steps).
4) Seal the plate with aluminum film and incubate for 10 minutes on ice.
5) Raise the temperature to 37° C. and incubate for 3 to 5 hours (depends on the lot of the peptide).
6) Remove the aluminum film and add 250 μL/well of 5 μM thioflavin T (ThT) [T-3516, Sigma-Aldrich] in 50 mM glycine-NaOH, pH 8.5. Read fluorescence on a plate reader (ex=440 nm/20 nm; em=485 nm/20 nm) within 5 minutes.

T1 sequence (P05067 672-711 limits assumed): as the sequence (P05067 672-711 limits assumed) above

In general, IC50 refers to the concentration at which inhibition is half-maximal. One may read the melting point as the temperature, or range, at which the solid turns liquid. `CCCCCCN(C)c1ccc(/C=C2\SC(=S)N(CCNS(=O)(=O)c3ccccc3)C2=O)cc1` [Example 11, (Z) N(2-{5-[4-(Hexyl-methyl-amino)benzylidene]-4-oxo-2-thioxo-thiazolidin-3-yl}-ethyl)-benzenesulfonamide] showed a melting point of 152 to 155 °C. This molecule returned an IC50 in data set [1] of 25 µM. For the same molecule, the IC50 at Aβ(1-40) [2] was more than 100 µM. The midpoint of inhibition against Aβ(1-42), the IC50, lay at 2.19 µM. The IC50 against Aβ(1-40) [3] worked out at 9 µM.

Regarding `CCCCCCN(C)c1ccc(/C=C2\SC(=S)N(CCNS(=O)(=O)C(F)(F)F)C2=O)cc1` [Example 12, (Z) C,C,C-Trifluoro-N-(2-{5-[4-(hexyl-methyl-amino)benzyldene]-4-oxo-2-thioxo-thiazolidin-3-yl}-ethyl)methanesulfonamide], the melting point was 170 to 173 °C. The same molecule registered a concentration for half-maximal inhibition (IC50) in data set [1] of 26 µM. The concentration for half-maximal inhibition (IC50) on Aβ(1-40) [2] is more than 100 µM. The molecule further gave an IC50 on Aβ(1-42) of 1.64 µM. On Aβ(1-40) [3], 1 µM corresponded to half-maximal inhibition (IC50).

Molecule `CCCCCCN(C)c1ccc(/C=C2\SC(=S)N(CCNC(=O)C(F)(F)F)C2=O)cc1` [Example 13, (Z) 2,2,2-Trifluoro-N-(2-{5-[4(hexyl-methyl-amino)benzylidene]-4-oxo-2-thioxo-thiazolidin-3-yl}-ethyl)-acetamide] registered a melting point of 136 to 139 °C. The molecule also gave a 50% inhibitory concentration (IC50) in data set [1] of 28 µM. Moreover, the IC50 on Aβ(1-40) [2] is more than 100 µM. The molecule further returned an IC50 against Aβ(1-42) of 3.5 µM. Further, on Aβ(1-40) [3], the IC50 was determined as 10 µM.

`CCCCCCN(C)c1ccc(/C=C2\SC(=S)N(Cc3nnn[nH]3)C2=O)cc1` [Example 16, (Z) 5-[4-(Hexyl-methyl-amino)benzylidene]-3-(1H-tetrazol-5-ylmethyl)-2-thioxo-thiazolidin-4-one]: the melting point fell in the range of 198 to 200 °C. The molecule further displayed an IC50 in data set [1] of 38 µM. For the same molecule, the concentration for half-maximal inhibition (IC50) on Aβ(1-40) [2] was determined as 7 µM. Moreover, at Aβ(1-42), half-maximal inhibition (IC50) required 1.94 µM. At Aβ(1-40) [3], this molecule came in with an IC50 of 3 µM.

`CCCCCN(CCCCC)c1ccc(/C=C2\SC(=S)N(Cc3nnn[nH]3)C2=O)cc1` [Example 17] came in with a melting point of 208 to 210 °C. In data set [1], this molecule yielded an IC50 of 2 µM. Further, on Aβ(1-40) [2], the concentration for half-maximal inhibition (IC50) was 10 µM and 5 µM. Besides, the IC50 against Aβ(1-42) was found to be 1.87 µM. Besides, the IC50 against Aβ(1-40) [3] was 1 µM and 1.5 µM.

Consider `CCCCN(CCCC)c1ccc(/C=C2\SC(=S)N(CC(=O)NS(=O)(=O)C(F)(F)F)C2=O)cc1` [Example 18, (Z) N-{[5-(4-Dibutylamino-benzylidene)-4-oxo-2-thioxo-thiazolidin-3-yl]-acetyl}-C,C,C-trifluoro-methanesulfonamide], for which the melting point lay within 228 to 230 °C. Besides, 122 µM corresponded to half-maximal inhibition in data set [1] (IC50). Moreover, the IC50 on Aβ(1-40) [2] is 5 µM. Also, the IC50 against Aβ(1-42) stood at 1.88 µM. The molecule also gave an IC50 at Aβ(1-40) [3] of 0.6 µM.

As to `CCCCN(CCCC)c1ccc(/C=C2\SC(=S)N(CC(=O)NS(=O)(=O)c3ccccc3)C2=O)cc1` [Example 19, (Z) N-{[5-(4-Dibutylamino-benzytidene)-4-oxo-2-thioxo-thiazolidin-3-yl]-acetyl}-benzenesulfonamide], the melting point was 112 to 115 °C. Besides, the IC50 in data set [1] worked out at 129 µM. In addition, on Aβ(1-40) [2], the half-maximal inhibitory concentration (IC50) is 5 µM. At Aβ(1-42), the IC50 came to 1.77 µM. The IC50 on Aβ(1-40) [3] is 1.1 µM.

In the case of `CCCCCN(CCCCC)c1ccc(/C=C2\SC(=S)N(CC(=O)NS(=O)(=O)c3ccccc3)C2=O)cc1` [Example 22, (Z) N-{2-[5-(4-Dipentylamino-benzylidene)-4-oxo-2-thioxo-thiazolidin-3-yl]-acetyl}-benzenesulfonamide], the melting point was 121 to 123 °C. Also, the concentration for half-maximal inhibition (IC50) in data set [1] is more than 60 µM. Further, the IC50 on Aβ(1-40) [2] was 3 µM. It took 1.99 µM to reach half-maximal inhibition against Aβ(1-42) (IC50). For the same molecule, 1 µM corresponded to half-maximal inhibition against Aβ(1-40) [3] (IC50).

The molecule `O=C1/C(=C/c2ccc(N3CC[C@@H]4CCCC[C@H]4C3)cc2)SC(=S)N1Cc1nnn[nH]1` [Example 23, (Z) 5-[(4aS,8aR)-4-(Octahydro-isoquinolin-2-yl)-benzylidene]-3-(1H-tetrazol-5-ylmethyl)-2-thioxo-thiazolidin-4-one] gave a melting point of 247 °C. For the same molecule, in data set [1], half-maximal inhibition (IC50) required 30 µM. In addition, at Aβ(1-40) [2], the 50% inhibitory concentration (IC50) is more than 100 µM. For the same molecule, the IC50 at Aβ(1-42) was 3.33 µM. Moreover, the IC50 at Aβ(1-40) [3] is 1 µM and 0.5 µM.
